37 compounds from ChEMBL document CHEMBL1828590 (J Med Chem, 2011) can be followed below.

In data set [1] the test system is COLO 205. The experiment in a line: Antiproliferative activity against human COLO205 cells after 96 hrs by celltiter 96 assay. In kind it is functional, cell-based. The note with it: COLO 205, 96 h.
In data set [2] the test system is A2780. As to the kind of experiment: Antiproliferative activity against human A2780 cells after 96 hrs by celltiter 96 assay. In kind it is functional, cell-based. Conditions: A2780, 96 h.
Data set [3] concerns HCT-116. As to the kind of experiment: Antiproliferative activity against human HCT116 cells after 96 hrs by celltiter 96 assay. The format is functional, cell-based. The note with it: HCT-116, 96 h.
The target of data set [4] is Histone deacetylase 1 (Homo sapiens, UniProt Q13547).
Description: Inhibition of full length recombinant HDAC1 using Fluor de Lys as substrate by fluorescence assay
The subject of data set [5] is PC-3. As to the kind of experiment: Antiproliferative activity against human PC3 cells after 96 hrs by celltiter 96 assay. In kind it is functional, cell-based. The note with it: PC-3, 96 h.
The nature of data set [6]: Half life in human liver microsomes. In kind it is ADME, Microsome. For orientation: Microsomes from liver hold many membrane-bound enzymes, among them those of drug oxidation.
Data set [7] can be described thus: Half life in mouse liver microsomes. Conditions: liver microsomes. The format is ADME, Microsome.

Chain of Histone deacetylase 1 (Q13547 whole entry): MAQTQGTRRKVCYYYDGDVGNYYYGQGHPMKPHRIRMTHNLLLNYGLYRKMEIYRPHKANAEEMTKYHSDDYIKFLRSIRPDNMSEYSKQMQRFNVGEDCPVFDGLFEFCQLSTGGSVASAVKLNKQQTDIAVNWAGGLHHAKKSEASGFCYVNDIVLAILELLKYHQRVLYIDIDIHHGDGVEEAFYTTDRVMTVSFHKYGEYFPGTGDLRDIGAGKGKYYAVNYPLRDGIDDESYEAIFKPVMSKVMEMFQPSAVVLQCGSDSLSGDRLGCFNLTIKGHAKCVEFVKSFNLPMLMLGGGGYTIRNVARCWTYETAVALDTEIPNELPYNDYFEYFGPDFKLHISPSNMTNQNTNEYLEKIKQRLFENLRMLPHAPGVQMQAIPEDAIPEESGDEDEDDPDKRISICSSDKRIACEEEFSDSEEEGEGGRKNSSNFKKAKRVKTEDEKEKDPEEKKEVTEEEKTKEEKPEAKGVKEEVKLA

For `CCN(CC)CCn1c(CC2CC3CCC2C3)nc2cc(/C=C/C(=O)NO)ccc21` (stereo not given), the half-inhibitory concentration (IC50) (as a rule, the midpoint of a concentration-inhibition curve) in data set [1] came to 390 nM; in data set [2] it was 210 nM; in data set [3], 330 nM; in data set [4] it was 32 nM; in data set [5], 530 nM.
As to `CCN(CC)CCn1c(CC(C)(C)C)nc2cc(/C=C/C(=O)NO)ccc21`, the IC50 was 1190 nM in data set [1] and 135 nM in data set [4].
The matching figures for `CCN(CC)CCc1nc2cc(/C=C/C(=O)NO)ccc2n1CCC(C)C`: 6810 nM and 575 nM.
For `CCCCCCCCc1nc2cc(/C=C/C(=O)NO)ccc2n1CCNC`, in that order: 230 nM and 15 nM.
Regarding `CCCCc1nc2cc(/C=C/C(=O)NO)ccc2n1C1CCNCC1`, half-maximal inhibition in data set [1] (IC50) was put at 7000 nM.
For `CCN(CC)CCn1c(CCc2ccccc2)nc2cc(/C=C/C(=O)NO)ccc21`, the results for the half-life in data set [6] and in data set [7] were not below 30 min and 5 min, respectively.
Turning to `CCCCc1nc2cc(/C=C/C(=O)NO)ccc2n1CCN(C)C(C)C`, the IC50 stood at 540 nM in data set [1] and 45 nM in data set [4].
The matching figures for `CCCCc1nc2cc(/C=C/C(=O)NO)ccc2n1C1CCCNC1` (stereo not given): 4870 nM and 190 nM.
In the case of `CCCCCc1nc2cc(/C=C/C(=O)NO)ccc2n1C1CCCN(C)C1` (stereo not given), the half-inhibitory concentration (IC50) in data set [1] amounted to 2100 nM; in data set [4], 158 nM.
Take `CC(C)c1nc2cc(/C=C/C(=O)NO)ccc2n1CC(C)(C)CN(C)C`: the IC50 came out at 1730 nM in data set [1] and 308 nM in data set [4].
In the case of `CCCCc1nc2cc(/C=C/C(=O)NO)ccc2n1CCCNC(C)C`, the IC50 stood at 2890 nM in data set [1] and 165 nM in data set [4].
On to `CCCCc1nc2cc(/C=C/C(=O)NO)ccc2n1CC(C)(C)CN(C)C`, for which the IC50 was 2230 nM in data set [1] and 150 nM in data set [4].
On to `NCCn1c(C2CC2c2ccccc2)nc2cc(/C=C/C(=O)NO)ccc21` (stereo not given), for which the 50% inhibitory concentration (IC50) in data set [1] amounted to 4530 nM; in data set [4] it was 84 nM.
As for `CCCCCCc1nc2cc(/C=C/C(=O)NO)ccc2n1CCN(CC)CC`, the IC50 is 420 nM in data set [1] and 45 nM in data set [4].
The matching figures for `CCCCCc1nc2cc(/C=C/C(=O)NO)ccc2n1CCN(C)CC`: 450 nM and 41 nM.
For `CCN(CC)CCn1c(CC(C)C)nc2cc(/C=C/C(=O)NO)ccc21`, the IC50 in data set [1] is 810 nM; in data set [2], 1240 nM; in data set [3], 1300 nM; in data set [4], 92 nM; in data set [5], 950 nM.
With `CCCCCCc1nc2cc(/C=C/C(=O)NO)ccc2n1CCNC`, the half-maximal inhibitory concentration (IC50) in data set [1] stood at 550 nM; in data set [4] it was 29 nM.
The matching figures for `CCCc1nc2cc(/C=C/C(=O)NO)ccc2n1CCN(CC)CC`: 980 nM and 155 nM.
For the compound `CC/C=C\CCc1nc2cc(/C=C/C(=O)NO)ccc2n1CC(C)(C)CN(C)C`, the half-inhibitory concentration (IC50) was 620 nM in data set [1]; 370 nM in data set [2]; 920 nM in data set [3]; 53 nM in data set [4]; 380 nM in data set [5].
As to `CN(C)CC(C)(C)Cn1c(C2CCCCC2)nc2cc(/C=C/C(=O)NO)ccc21`, the IC50 in data set [1] is 2450 nM; in data set [4], 421 nM.
For the compound `CCN(CC)CCn1c(C2CC2c2ccccc2)nc2cc(/C=C/C(=O)NO)ccc21` (trans isomer), the figures for the half-maximal inhibitory concentration (IC50) in data set [1] and in data set [4] were 630 nM and 169 nM, respectively.
For `CCCCCc1nc2cc(/C=C/C(=O)NO)ccc2n1CCNCC`, the IC50 in data set [1] amounted to 420 nM; in data set [4], 27 nM.
On to `CCCCCCCCc1nc2cc(/C=C/C(=O)NO)ccc2n1CCN`, for which the figures for the IC50 in data set [1] and in data set [4] were 540 nM and 22 nM, respectively.
For `CC(C)Cc1nc2cc(/C=C/C(=O)NO)ccc2n1CC(C)(C)CN(C)C`, in that order: 2690 nM and 175 nM.
The matching figures for `CCCCc1nc2cc(/C=C/C(=O)NO)ccc2n1CCN(C(C)C)C(C)C`: 1870 nM and 335 nM.
As for `CCCCc1nc2cc(/C=C/C(=O)NO)ccc2n1CCN(C)CC`, half-maximal inhibition in data set [1] (IC50) was put at 1650 nM.
Regarding `CN(C)CCn1c(C2CC2c2ccccc2)nc2cc(/C=C/C(=O)NO)ccc21` (stereo not given), the half-inhibitory concentration (IC50) amounted to 690 nM in data set [1] and 175 nM in data set [4].
The matching figures for `CCCCCCc1nc2cc(/C=C/C(=O)NO)ccc2n1C1CCNC1` (stereo not given): 1460 nM and 41 nM.
As for `CC(Cc1nc2cc(/C=C/C(=O)NO)ccc2n1CC(C)(C)CN(C)C)CC(C)(C)C` (stereo not given), the concentration for half-maximal inhibition (IC50) stood at 150 nM in data set [1]; 230 nM in data set [2]; 410 nM in data set [3]; 37 nM in data set [4]; 310 nM in data set [5].
The matching figures for `CCNCCn1c(CC(C)CC(C)(C)C)nc2cc(/C=C/C(=O)NO)ccc21` (stereo not given): 140 nM, 140 nM, 270 nM, 23 nM and 100 nM.
Take `CCCCCc1nc2cc(/C=C/C(=O)NO)ccc2n1CCNC`: the IC50 in data set [1] turned out to be 950 nM; in data set [4] it was 41 nM.
As to `CCCCc1nc2cc(/C=C/C(=O)NO)ccc2n1C1CCNC1` (stereo not given), the half-maximal inhibitory concentration (IC50) in data set [1] worked out at 16400 nM; in data set [4], 110 nM.
The matching figures for `CCCCc1nc2cc(/C=C/C(=O)NO)ccc2n1CCN(C)C`: 650 nM and 90 nM.
Turning to `CCCCCCc1nc2cc(/C=C/C(=O)NO)ccc2n1C1CCCNC1` (stereo not given), the half-inhibitory concentration (IC50) turned out to be 1340 nM in data set [1] and 105 nM in data set [4].
The matching figures for `CCCCc1nc2cc(/C=C/C(=O)NO)ccc2n1CCC(C)C`: 6020 nM and 2490 nM.
The matching figures for `CCCCc1nc2cc(/C=C/C(=O)NO)ccc2n1C1CCN(C)C1` (stereo not given): 1090 nM and 125 nM.
As for `CCCCc1nc2cc(/C=C/C(=O)NO)ccc2n1CCNCC`, the IC50 turned out to be 880 nM in data set [1]; 760 nM in data set [2]; 1110 nM in data set [3]; 77 nM in data set [4]; 380 nM in data set [5].
